Drawing on patent publication US20250163104A1, “MACROCYCLIC IMMUNOMODULATORS” (priority 2021, published 2025), this text covers IC50 for ten molecules.

In general, IC50 refers to the concentration needed to halve the response being measured.

Molecules are shown by their SMILES. Where a SMILES comes first, the peptide text is derived from it. Bridges are numbered along the chain shown (N, C = ends). [ ]: non-standard residue; d: D form. The star is where a group is joined. Phe(4-COOH) = N[C@@H](Cc1ccc(C(=O)O)cc1)C(=O)O; Bip = N[C@@H](Cc1ccc(-c2ccccc2)cc1)C(=O)O; Phe(3-Me) = Cc1cccc(C[C@H](N)C(=O)O)c1; 4Pal = N[C@@H](Cc1ccncc1)C(=O)O; Cha = N[C@@H](CC1CCCCC1)C(=O)O; dCha = N[C@H](CC1CCCCC1)C(=O)O; Carboxymethyl = O=C(O)C*; Orn = NCCC[C@H](N)C(=O)O; Dab = NCC[C@H](N)C(=O)O; Dap = NC[C@H](N)C(=O)O

T1 sequence (Q15116 25-288): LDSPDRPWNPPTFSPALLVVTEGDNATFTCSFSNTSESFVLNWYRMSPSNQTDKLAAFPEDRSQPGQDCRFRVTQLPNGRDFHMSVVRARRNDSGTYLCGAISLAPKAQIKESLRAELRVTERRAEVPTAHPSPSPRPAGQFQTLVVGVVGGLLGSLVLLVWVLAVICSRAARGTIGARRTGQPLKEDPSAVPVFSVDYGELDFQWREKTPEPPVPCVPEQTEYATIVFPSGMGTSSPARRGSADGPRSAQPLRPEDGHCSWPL

The test addresses T1, human PD-1 / PD-L1-Ig binding on Jurkat cell line over-expressing human PD-1 (Jurkat-PD-1) (Homo sapiens, UniProt Q15116).
T1 construct: expressed in transfected cells; host or cells: Jurkat
The test is described as follows: Jurkat-PD-1 Cell Binding High-Content Screening Assay (CBA). The following applies: Jurkat-PD-1 cells, PE-labeled PD-L1-Ig 20 nM final; read-out: Jurkat HPD1_PDL1 IC50. It is filed as cell-based. A digest of the protocol:
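Jurkat-hPD-1 cells in DMEM with 10% fetal calf serum receive test compound and are held at 37° C for 2 h. PE-labeled PD-L1-Ig is added at 20 nM final and left for 1 hour. Cells are then fixed and Hoechst-stained, and binding is measured by imaging.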
Regarding `Cc1cccc(C[C@@H]2NC(=O)[C@H](CC(=O)O)NC(=O)[C@H](Cc3ccc(O)cc3)NC(=O)[C@H](CC(N)=O)NC(=O)CSC[C@@H](C(=O)N[C@@H](C)C(N)=O)NC(=O)[C@H]([C@@H](C)O)NC(=O)[C@H](C(C)C)NC(=O)[C@H](CC3CCCCC3)NC(=O)[C@H](CCN)NC(=O)[C@@H](Cc3ccccc3)NC(=O)[C@H](CCCN)NC(=O)[C@H](CCC(=O)O)NC(=O)[C@H](Cc3ccc(-c4ccccc4)cc3)NC(=O)[C@H](C(C)C)NC2=O)c1` [Compound 1431] ({CH2CO}-NYD[Phe(3-Me)]V[Bip]E[Orn][dF][Dab][Cha]VTCA-NH2; thioether N-14), the half-inhibitory concentration (IC50) stood at 11.6 nM.

In the case of `CC(C)[C@@H]1NC(=O)[C@H](Cc2c[nH]c3ccccc23)NC(=O)[C@H](CC(=O)O)NC(=O)[C@H](Cc2ccc(C(=O)O)cc2)NC(=O)[C@H](Cc2ccncc2)NC(=O)CSC[C@@H](C(=O)N[C@@H](C)C(N)=O)NC(=O)[C@H]([C@@H](C)O)NC(=O)[C@H](C(C)C)NC(=O)[C@H](CC2CCCCC2)NC(=O)[C@H](CCN)NC(=O)[C@@H](Cc2ccccc2)NC(=O)[C@H](CCCN)NC(=O)[C@H](CCC(=O)O)NC(=O)[C@H](Cc2ccc(-c3ccccc3)cc2)NC1=O` [Compound 1432] ({CH2CO}-[4Pal][Phe(4-COOH)]DWV[Bip]E[Orn][dF][Dab][Cha]VTCA-NH2; thioether N-14), the 50% inhibitory concentration (IC50) turned out to be 17.4 nM.

Consider `CC(C)[C@@H]1NC(=O)[C@H](Cc2c[nH]c3ccccc23)NC(=O)[C@H](CC(=O)O)NC(=O)[C@H](Cc2ccncc2)NC(=O)[C@H](CN)NC(=O)CSC[C@@H](C(=O)N[C@@H](C)C(N)=O)NC(=O)[C@H]([C@@H](C)O)NC(=O)[C@H](C(C)C)NC(=O)[C@H](CC2CCCCC2)NC(=O)[C@H](CCN)NC(=O)[C@@H](Cc2ccccc2)NC(=O)[C@H](CCCN)NC(=O)[C@H](CCC(=O)O)NC(=O)[C@H](Cc2ccc(-c3ccccc3)cc2)NC1=O` [Compound 1433] ({CH2CO}-[Dap][4Pal]DWV[Bip]E[Orn][dF][Dab][Cha]VTCA-NH2; thioether N-14), for which the IC50 was found to be 40.5 nM.

For the molecule `CC(C)[C@@H]1NC(=O)[C@H](Cc2c[nH]c3ccccc23)NC(=O)[C@H](CC(=O)O)NC(=O)[C@H](Cc2ccncc2)NC(=O)[C@H](Cc2ccc(OCC(=O)O)cc2)NC(=O)CSC[C@@H](C(=O)N[C@@H](C)C(N)=O)NC(=O)[C@H]([C@@H](C)O)NC(=O)[C@H](C(C)C)NC(=O)[C@H](CC2CCCCC2)NC(=O)[C@H](CCN)NC(=O)[C@@H](Cc2ccccc2)NC(=O)[C@H](CCCN)NC(=O)[C@H](CCC(=O)O)NC(=O)[C@H](Cc2ccc(-c3ccccc3)cc2)NC1=O` [Compound 1434] ({CH2CO}-Y(Carboxymethyl)[4Pal]DWV[Bip]E[Orn][dF][Dab][Cha]VTCA-NH2; thioether N-14), the IC50 was determined as 35.9 nM.

`CC(C)[C@@H]1NC(=O)[C@H](Cc2c[nH]c3ccccc23)NC(=O)[C@H](CC(=O)O)NC(=O)[C@H](Cc2ccc(O)cc2)NC(=O)[C@H](CC(N)=O)NC(=O)CSC[C@@H](C(=O)N[C@@H](C)C(N)=O)NC(=O)[C@H]([C@@H](C)O)NC(=O)[C@H](C(C)C)NC(=O)[C@H](CC2CCCCC2)NC(=O)[C@H](CCN)NC(=O)[C@@H](Cc2ccccc2)NC(=O)[C@H](CCCN)NC(=O)[C@H](CCC(=O)O)NC(=O)[C@H](Cc2ccc(-c3ccccc3)cc2)NC1=O` [Compound 1435] ({CH2CO}-NYDWV[Bip]E[Orn][dF][Dab][Cha]VTCA-NH2; thioether N-14): the IC50 is 53.1 nM.

Take `CC(C)[C@@H]1NC(=O)[C@H](Cc2c[nH]c3ccccc23)NC(=O)[C@H](CC(=O)O)NC(=O)[C@H](Cc2ccc(OCC(=O)O)cc2)NC(=O)[C@H](CN)NC(=O)CSC[C@@H](C(=O)N[C@@H](C)C(N)=O)NC(=O)[C@H]([C@@H](C)O)NC(=O)[C@H](C(C)C)NC(=O)[C@H](CC2CCCCC2)NC(=O)[C@H](CCN)NC(=O)[C@@H](Cc2ccccc2)NC(=O)[C@H](CCCN)NC(=O)[C@H](CCC(=O)O)NC(=O)[C@H](Cc2ccc(-c3ccccc3)cc2)NC1=O` [Compound 1436] ({CH2CO}-[Dap]Y(Carboxymethyl)DWV[Bip]E[Orn][dF][Dab][Cha]VTCA-NH2; thioether N-14): the half-maximal inhibitory concentration (IC50) was determined as 22.8 nM.

In the case of `Cc1cccc(C[C@@H]2NC(=O)[C@H](CC(=O)O)NC(=O)[C@H](Cc3ccc(C(=O)O)cc3)NC(=O)[C@H](Cc3ccc(OCC(=O)O)cc3)NC(=O)CSC[C@@H](C(=O)N[C@@H](C)C(N)=O)NC(=O)[C@H]([C@@H](C)O)NC(=O)[C@H](C(C)C)NC(=O)[C@H](CC3CCCCC3)NC(=O)[C@H](CCN)NC(=O)[C@@H](Cc3ccccc3)NC(=O)[C@H](CCCN)NC(=O)[C@H](CCC(=O)O)NC(=O)[C@H](Cc3ccc(-c4ccccc4)cc3)NC(=O)[C@H](C(C)C)NC2=O)c1` [Compound 1437] ({CH2CO}-Y(Carboxymethyl)[Phe(4-COOH)]D[Phe(3-Me)]V[Bip]E[Orn][dF][Dab][Cha]VTCA-NH2; thioether N-14), the IC50 was determined as 16.6 nM.

With `CC(C)[C@@H]1NC(=O)[C@H](Cc2c[nH]c3ccccc23)NC(=O)[C@H](CC(=O)O)NC(=O)[C@H](Cc2ccc(C(=O)O)cc2)NC(=O)[C@H](Cc2ccc(OCC(=O)O)cc2)NC(=O)CSC[C@@H](C(=O)N[C@@H](C)C(N)=O)NC(=O)[C@H]([C@@H](C)O)NC(=O)[C@H](C(C)C)NC(=O)[C@H](CC2CCCCC2)NC(=O)[C@H](CCN)NC(=O)[C@@H](Cc2ccccc2)NC(=O)[C@H](CCCN)NC(=O)[C@H](CCC(=O)O)NC(=O)[C@H](Cc2ccc(-c3ccccc3)cc2)NC1=O` [Compound 1438] ({CH2CO}-Y(Carboxymethyl)[Phe(4-COOH)]DWV[Bip]E[Orn][dF][Dab][Cha]VTCA-NH2; thioether N-14), the half-maximal inhibitory concentration (IC50) stood at 30.4 nM.

Consider `CC(C)[C@@H]1NC(=O)[C@H](Cc2c[nH]c3ccccc23)NC(=O)[C@H](CC(=O)O)NC(=O)[C@H](Cc2ccc(C(=O)O)cc2)NC(=O)[C@H](Cc2ccncc2)NC(=O)CSC[C@@H](C(=O)N[C@@H](C)C(N)=O)NC(=O)[C@H]([C@@H](C)O)NC(=O)[C@H](C(C)C)NC(=O)[C@H](CC2CCCCC2)NC(=O)[C@H](CCN)NC(=O)[C@@H](CC2CCCCC2)NC(=O)[C@H](CCCN)NC(=O)[C@H](CCC(=O)O)NC(=O)[C@H](Cc2ccc(-c3ccccc3)cc2)NC1=O` [Compound 1439] ({CH2CO}-[4Pal][Phe(4-COOH)]DWV[Bip]E[Orn][dCha][Dab][Cha]VTCA-NH2; thioether N-14), for which the IC50 worked out at 5.5 nM.

Regarding `CC(C)[C@@H]1NC(=O)[C@H](Cc2c[nH]c3ccccc23)NC(=O)[C@H](CC(=O)O)NC(=O)[C@H](Cc2ccncc2)NC(=O)[C@H](CN)NC(=O)CSC[C@@H](C(=O)N[C@@H](C)C(N)=O)NC(=O)[C@H]([C@@H](C)O)NC(=O)[C@H](C(C)C)NC(=O)[C@H](CC2CCCCC2)NC(=O)[C@H](CCN)NC(=O)[C@@H](CC2CCCCC2)NC(=O)[C@H](CCCN)NC(=O)[C@H](CCC(=O)O)NC(=O)[C@H](Cc2ccc(-c3ccccc3)cc2)NC1=O` [Compound 1440] ({CH2CO}-[Dap][4Pal]DWV[Bip]E[Orn][dCha][Dab][Cha]VTCA-NH2; thioether N-14), the IC50 turned out to be 86.8 nM.
